According to US10583109B2, “Use of silver(I) complexes as anticancer agents” (University of Johannesburg, priority 2012, dated 2020):

Legend:
Caspase-3/7 = test: Caspase-Glo 3/7 assay in SNO-oesophageal cancer cells; type: cell-based; details: 100 μM, 24 hours treatment
Protocol: The Caspase-Glo®3/7 assay was used to confirm that the structural changes observed are due to apoptotic cell death. In this luminescent based assay, a 1:1 ratio of the Caspase-Glo® reagent was added to treated cells into a microtiter plate. The plate was gently agitated for 30 seconds and incubated for 30 minutes at room temperature. The whole luminescent intensity was measured using a Synergy HT Multi-Detection Microplate reader, where the intensity of the luminescence is proportional to the Caspase-3/7 concentration.
The error bars where constructed based on the standard error of the mean (SEM) where n=6. The significant difference were calculated with respect to the vehicle control (P<**0.001). A relative increase in expression was observed throughout.

[1] = tested on: SNO-oesophageal cancer cells; type: cell-based; details: 100 μM, 24 hour treatment
Protocol: The SNO-oesophageal cancer cells were cultured in Dulbecco's modified Eagles medium (DMEM) containing 10% Foetal bovine serum (FBS), 0.8% Penicillin/Streptomycin/Fungizone and 0.2% Gentamycin. The SNO-oesophageal cancer cells were subcultured every 48 hours and incubated at 37° C. under a 5% CO2 humidified atmosphere. After 48 hours the cells were trypsinized and plated (6×10^5 cells) in 3.5 cm culture dishes and left to cultivate for 24 hours.
MCF-7 breast cancer cells, in terms of a first study, and SNO-oesophageal cancer cells, in terms of a second study, were treated with 10 μM silverthiocyanide complexes (1)-(5), as well as their ligands (Ligand-1 to Ligand-5) over a 24 hour incubation period. These complexes were dissolved in 0.1% Dimethyl sulfoxide (DMSO). The DMSO alone (vehicle control) decreased the viability with approximately 2.2%, signifying its minimal influence in cancer cell growth. For comparative purposes, 100 μM Cisplatin (CDDP) and 25% H2O2 was included which respectively serves as the apoptotic and necrotic controls. Cisplatin was prepared in 0.9% NaCl, whereas H2O2 was prepared in the supplemented DMEM media right before treatment. An untreated negative control (UT) was exposed to similar conditions as the treated cells and monitored during the experimental study.
An AlamarBlue® Viability® (Serotec, UK) assay was performed after a 24 hour treatment with complexes (1)-(5) and their ligands (Ligand-1 to Ligand-5, respectively) to evaluate the cellular effect the instant complexes (and their ligands) may have on the cancer cells. AlamarBlue® dye (10%) was incubated with trypsinized cells over a 2 hour period before the fluorescence was measured with a Synergy HT Multi-Detection Microplate reader (BioTek, Winooski, Vt.) at wavelengths of 530 nm and (excitation) and 590 nm (emission). This fluorescent based assay in particular involves the metabolic oxidation-reduction reaction of resazurin to a reduced resorufin product that is directly proportional to the amount of viable cells.
The percentage cellular viability of differentially treated SNO-oesophageal cells was determined using an AlamarBlue® assay, as depicted in FIG. 7. Different controls (grey) were included: untreated, 0.1% DMSO solvent and apoptotic control (100 μM Cisplatin) as well as the corresponding ligands (10 μM) of complexes (1)-(5). Cells were treated with silver(I) thiocyanate phosphine complexes (1)-(5) at a concentration of 10 μM. The percentages were calculated with respect to the control and error bars were constructed on the basis of Standard Error of the Mean (SEM) where n=9 except for the ligand of compound 4 (n=8). The P-values (*P<0.001 and **P<0.0001) were determined with the Student's T-test to evaluate the significant difference.
The cells were thereafter treated with complexes (6)-(9) at a concentration of 10 μM prepared in 0.1% DMSO. Treatment with either 25% H2O2 or 100 μM CDDP served as controls for necrosis and apoptosis respectively. The CDDP was prepared in 0.9% NaCl while the H2O2 was diluted with supplemented DMEM prior to treatment.
A suspension (100 μl) of the differentially treated cells was added in triplicate to a microtiter plate. In the dark, AlamarBlue® dye (10 μl) was added to each well containing a sample, followed by a 2 hour incubation in a 5% CO2 incubator at 37° C. The fluorescence was read on a Synergy HT Multi-Detection Microplate reader at a wavelength of 530 nm and (excitation) and 590 nm (emission). In terms of this study, the apoptotic control CDDP (100 μM) was included. Error bars represent the standard error of the mean (SEM) where n=9. The Student's T-test was used to determine the significant difference of the treatments with respect to DMSO (P*<0.05 and P**<0.001). The silver(I) nitrate phosphine complexes under evaluation decreased the cancer cell viability to a large extent compared to DMSO except complex (9).
SNO-oesophageal cancer cells were a gift from the University of Pretoria, RSA. […]

[2] = tested on: A375 malignant melanoma cancer cells; test: CytoTox-ONE Membrane Integrity Assay (LDH) in A375 cells; type: cell-based, human; details: 10 µM
Protocol: (§1) For purposes of the Celltitre-Glo™ Luminescent Cell Viability [Promega, USA] assay, a 1:1 mixture of cell sample to Celltitre-Glo™ substrate/buffer mix reagent, in duplicate, was added to 96-well black plate, shaken for 30 seconds at room temperature and then further incubated for 30 minutes. Whole luminescence was then measured with a Synergy HT Multi-Detection Microplate Reader. The CytoTox-ONE™ Homogenous Membrane Integrity [Promega, USA] assay is a rapid fluorescent assay that measures the level of lactate dehydrogenase leaked from damaged membranes, therefore, the amount of fluorescence measured is directly proportional to the amount of lysed/damaged cells. In triplicate, a 1:1 cell sample to CytoTox-ONE™ substrate/buffer mix reagent was added to a 96-well clear plate, shaken for 30 seconds followed by incubation for 10 minutes. A CytoTox-ONE™ stop solution was added to each sample followed by a further 30 second shake on an orbital shaker. […] The fluorescence was then measured with a Synergy HT Multi-Detection Microplate Reader at an excitation wavelength of 530 nm and emission wavelength of 590 nm. FIG. 25 depicts the percentage ATP and Lactate Dehydrogenase (LDH) measured in differentially treated A375 malignant melanoma cancer cells as determined by the Celltitre-Glo™ Luminescent Cell Viability Assay and CytoTox-ONE™ Membrane Integrity Assay respectively. […]

[3] = tested on: A375 malignant melanoma cancer cells; test: AlamarBlue viability and proliferation assay of A375 malignant melanoma cancer cells; type: cell-based, human; details: concentration range 1.0 μM-10.0 μM, viability as percentage of 1.0% DMSO vehicle control, quadratic equation
Protocol: A375 melanoma cancer cells originate from an immortal cell line from human malignant melanoma from skin (ATCC no CRL-1619).
A375 malignant melanoma cancer cells were cultured in Dulbecco's Modified Eagle's Medium (DMEM), 13.53 g/L with sodium bicarbonate (NaHCO3), 3.7 g/L supplemented with 10% fetal bovine serum (FBS), and 1% Penicillin/Streptomycin/Fungizone in 75 cm^3 sterile culture flasks. Cells were incubated at 37° C. with 5% CO2 in a humidified atmosphere and were subcultured twice a week. Cells were subcultured every 48 hours and used between Passages 3 and 7. […]
An AlamarBlue® (Serotec, UK) assay was done to investigate the proliferation capabilities of the differentially treated cells. AlamarBlue® dye (10%) was incubated with trypsinized cells over a 2-hour period before the fluorescence was measured with a Synergy HT Multi-Detection Microplate reader (BioTek, Winooski, Vt.) at wavelengths of 530 nm and (excitation) and 590 nm (emission). […]
Treatment volumes were 1.0 μL of 1-10 μM range of stock solutions. Fluorescence was measured with 530 nm excitation wavelength and 590 nm emission wavelength. FIG. 21 represents 3 biological repeats measured in triplicate. DMEM reference blanks were averaged and subtracted from all readings and cellular viability values were calculated as percentage of the 1.0% DMSO vehicle control (VC). […]

Caspase 3/7 = test: Caspase-GLO 3/7 assay in A375 cells; type: cell-based, human; details: 10 μM, 24 hour treatments
Excerpt: Caspase-GLO™ 3/7, 8 and 9 Assays are luminescent assays that measure Caspase activities, which have key effector functions in intrinsic and extrinsic apoptosis, therefore the amount of luminescence measured is proportional to the amount of Caspase activity present. The assays are based on the principle that after Caspase cleavage, a substrate containing the tetrapeptide DEVD sequence binds with Caspase and is released for a luminescent reaction with a thermostable luciferase enzyme. In duplicate, a 1:1 cell sample to Caspase-Glo™ substrate/buffer mix reagent was added into 96-well black plates, then shaken for 30 seconds at room temperature followed by a 1 hour incubation. Whole luminescence was then measured with a Synergy HT Multi-Detection Microplate Reader.
FIG. 26 depicts Caspase 3/7, 8 and 9 levels in differentially treated A375 malignant melanoma cancer cells as determined by relative luminescence recorded using Caspase-GLO™ assays. Caspase levels represented as a percentage of 1.0% DMSO Vehicle Control (VC) set at 100%. Cells treated with: CDDP=100 μM Cisplatin Positive Apoptotic Control and then 10 μM concentrations of complex (13) and complex (14). […]

[4] = tested on: A375 malignant melanoma cancer cells; test: Celltitre-Glo Luminescent Cell Viability Assay (ATP) in A375 cells; type: cell-based, human; details: 10 µM
Protocol: as §1

Structure (SMILES)	Caspase induction (Caspase-3/7)	cells killed [1]	LDH levels compared to the VC [2]	IC50 [3]	Caspase 3/7 levels compared to the VC (Caspase 3/7)	ATP levels (cellular viability) [4]
N.N.[Cl][Pt][Cl] [Cisplatin, reference compound]	2 fold increase	~74%	–	–	–	–
O=[N+]([O-])[O-].[Ag+].c1ccc(P(c2ccccc2)c2ccccc2)cc1.c1ccc(P(c2ccccc2)c2ccccc2)cc1.c1ccc(P(c2ccccc2)c2ccccc2)cc1 [complex (14), AgNO3(PPh3)3]	–	–	significant increase	6.77 µM	increased	–
[Br][Ag]([PH](c1ccccc1)(c1ccccc1)c1ccccc1)([PH](c1ccccc1)(c1ccccc1)c1ccccc1)[PH](c1ccccc1)(c1ccccc1)c1ccccc1 [complex (13), AgBr(PPh3)3]	–	–	significant increase	5.16 µM	increased	less than 20%
